Species: Rattus norvegicus
Test: Open TG-GATES - Regimen: Single
Type: toxicity, organism-based, Sprague-Dawley
Parameters: regimen Single, gender Male, age 6 weeks
Conditions: in vivo, po, 0 mg/kg, route gavage, dose level Control; for APTT / Bas / Eos / Fbg / Hb / Ht / Lym / MCH / MCHC / MCV / Mono / Neu / PT / Plat / RBC / Ret / WBC: tissue Blood; for KIDNEY_TOTAL: tissue Kidney; for LIVER: tissue Liver; for A/G / ALP / ALT / AST / BUN / CRE / Ca / Cl / DBIL / GLC / IP / K / LDH / Na / PL / RALB / TBIL / TC / TG / TP / gamma-GTP: tissue Plasma

CN(CCOc1ccc(CC2SC(=O)NC2=O)cc1)c1ccccn1.O=C(O)/C=C\C(=O)O (centres undefined) [ROSIGLITAZONE MALEATE]
TERMINAL_BW (3 h): 206.3 g | APTT (3 h): 15.8 s | Bas (3 h): 0% | Eos (3 h): 0.6% | Fbg (3 h): 216.8 mg/dL | Hb (3 h): 13.1 g/dL | Ht (3 h): 39.7% | Lym (3 h): 75.6% | MCH (3 h): 21.4 pg | MCHC (3 h): 33.1% | MCV (3 h): 64.7 fL | Mono (3 h): 9.2% | Neu (3 h): 14.4% | PT (3 h): 12 s | Plat (3 h): 123.6 x10_4/uL | RBC (3 h): 614 x10_4/ul | Ret (3 h): 8.6% | WBC (3 h): 110.6 x10_2/uL | KIDNEY_TOTAL (3 h): 0.6 g | LIVER (3 h): 9.7 g | A/G (3 h): 2.3 | ALP (3 h): 1326.2 IU/L | ALT (3 h): 36.6 IU/L | AST (3 h): 71 IU/L | BUN (3 h): 13 mg/dL | CRE (3 h): 0.3 mg/dL | Ca (3 h): 11.4 mg/dL | Cl (3 h): 104.2 meq/L | DBIL (3 h): 0.012 mg/dL | GLC (3 h): 195.6 mg/dL | IP (3 h): 8.6 mg/dL | K (3 h): 4.4 meq/L | LDH (3 h): 82 IU/L | Na (3 h): 139.8 meq/L | PL (3 h): 138.2 mg/dL | RALB (3 h): 3.7 g/dL | TBIL (3 h): 0.046 mg/dL | TC (3 h): 76 mg/dL | TG (3 h): 71.4 mg/dL | TP (3 h): 5.4 g/dL | gamma-GTP (3 h): 0.6 IU/L | TERMINAL_BW (6 h): 205.9 g | APTT (6 h): 15.9 s | Bas (6 h): 0% | Eos (6 h): 1.2% | Fbg (6 h): 220.2 mg/dL | Hb (6 h): 13.2 g/dL | Ht (6 h): 40% | Lym (6 h): 80.2% | MCH (6 h): 21.6 pg | MCHC (6 h): 32.9% | MCV (6 h): 65.7 fL | Mono (6 h): 4.4% | Neu (6 h): 14.6% | PT (6 h): 12.2 s | Plat (6 h): 117 x10_4/uL | RBC (6 h): 609.4 x10_4/ul | Ret (6 h): 9.7% | WBC (6 h): 92.8 x10_2/uL | KIDNEY_TOTAL (6 h): 0.7 g | LIVER (6 h): 9.7 g | A/G (6 h): 2.3 | ALP (6 h): 1368.6 IU/L | ALT (6 h): 35.6 IU/L | AST (6 h): 66.6 IU/L | BUN (6 h): 10.4 mg/dL | CRE (6 h): 0.3 mg/dL | Ca (6 h): 11.3 mg/dL | Cl (6 h): 104.2 meq/L | DBIL (6 h): 0.01 mg/dL | GLC (6 h): 183.4 mg/dL | IP (6 h): 8.9 mg/dL | K (6 h): 4.4 meq/L | LDH (6 h): 79.2 IU/L | Na (6 h): 138.6 meq/L | PL (6 h): 143.4 mg/dL | RALB (6 h): 3.7 g/dL | TBIL (6 h): 0.05 mg/dL | TC (6 h): 83.6 mg/dL | TG (6 h): 70.4 mg/dL | TP (6 h): 5.3 g/dL | gamma-GTP (6 h): 1 IU/L | TERMINAL_BW (9 h): 204 g | APTT (9 h): 15.7 s | Bas (9 h): 0% | Eos (9 h): 0.6% | Fbg (9 h): 221.4 mg/dL | Hb (9 h): 12.8 g/dL | Ht (9 h): 39.1% | Lym (9 h): 73.4% | MCH (9 h): 21.6 pg | MCHC (9 h): 32.9% | MCV (9 h): 65.6 fL | Mono (9 h): 7.8% | Neu (9 h): 18.4% | PT (9 h): 11.9 s | Plat (9 h): 123 x10_4/uL | RBC (9 h): 597 x10_4/ul | Ret (9 h): 9% | WBC (9 h): 93.6 x10_2/uL | KIDNEY_TOTAL (9 h): 0.7 g | LIVER (9 h): 8.8 g | A/G (9 h): 2.4 | ALP (9 h): 1162.4 IU/L | ALT (9 h): 34.2 IU/L | AST (9 h): 68.8 IU/L | BUN (9 h): 10.8 mg/dL | CRE (9 h): 0.3 mg/dL | Ca (9 h): 11 mg/dL | Cl (9 h): 104.8 meq/L | DBIL (9 h): 0.01 mg/dL | GLC (9 h): 184 mg/dL | IP (9 h): 10 mg/dL | K (9 h): 4.5 meq/L | LDH (9 h): 85 IU/L | Na (9 h): 139.8 meq/L | PL (9 h): 137.4 mg/dL | RALB (9 h): 3.8 g/dL | TBIL (9 h): 0.046 mg/dL | TC (9 h): 87.6 mg/dL | TG (9 h): 45.2 mg/dL | TP (9 h): 5.4 g/dL | gamma-GTP (9 h): 1 IU/L | TERMINAL_BW (24 h): 219.8 g | APTT (24 h): 16.5 s | Bas (24 h): 0% | Eos (24 h): 1% | Fbg (24 h): 225 mg/dL | Hb (24 h): 12.8 g/dL | Ht (24 h): 38.9% | Lym (24 h): 79.4% | MCH (24 h): 21.5 pg | MCHC (24 h): 32.8% | MCV (24 h): 65.6 fL | Mono (24 h): 5.2% | Neu (24 h): 14.4% | PT (24 h): 11.7 s | Plat (24 h): 124.2 x10_4/uL | RBC (24 h): 593 x10_4/ul | Ret (24 h): 8% | WBC (24 h): 92.8 x10_2/uL | KIDNEY_TOTAL (24 h): 0.7 g | LIVER (24 h): 10.7 g | A/G (24 h): 2.3 | ALP (24 h): 1499.4 IU/L | ALT (24 h): 38.4 IU/L | AST (24 h): 66.4 IU/L | BUN (24 h): 15.4 mg/dL | CRE (24 h): 0.4 mg/dL | Ca (24 h): 11.5 mg/dL | Cl (24 h): 104 meq/L | DBIL (24 h): 0.016 mg/dL | GLC (24 h): 188.4 mg/dL | IP (24 h): 7.7 mg/dL | K (24 h): 4.4 meq/L | LDH (24 h): 97 IU/L | Na (24 h): 140.4 meq/L | PL (24 h): 164.2 mg/dL | RALB (24 h): 3.9 g/dL | TBIL (24 h): 0.038 mg/dL | TC (24 h): 94.4 mg/dL | TG (24 h): 107 mg/dL | TP (24 h): 5.6 g/dL | gamma-GTP (24 h): 1 IU/L

Reference: ChEMBL document CHEMBL3885861, “Open TG-GATES”
